# Laboratory results as given in publication PMC6269910 (Molecules, 2013).
# Tests used:
# [1] = tested on: carrageenan-induced hind paw edema; assay: Carrageenan-induced hind paw edema model; format: in vivo, mice; conditions: for anti-inflammatory activity (in words): all doses, all measurement intervals
# Method: Locally bred balb/c mice of both sexes (30-35 g) were purchased from the animal breeding laboratories of Inonu University ([…], Turkey). The animals were fed a standard pellet diet and water ad libitum in a temperature-controlled room. On the day before the treatments, food was withdrawn, but the animals were allowed free access of water. The allocation of animals to different groups was randomized, and the experiments were carried out under blind conditions. Mice used in the present study were cared for in accordance with the directory of the Inonu University Animal Care Unit, which applies the guidelines of the National Institutes of Health on laboratory animal welfare. Procedures involving animals and their care were conducted in conformity with international laws and policies and animal studies accepted by Inonu University Ethical Council (2011/A17). Test samples, suspended in a mixture of distilled water and 0.5% sodium carboxymethyl cellulose (CMC), were given orally to the animals. The control group animals received the same experimental handling as those of the test groups, except that the drug treatment was replaced with appropriate volumes of the dosing vehicle. […] For the preliminary activity screening, each test group was composed of four mice. […] Because of the daily changing circumstance, we used another control group for each experiment. For the determination of the effects on carrageenan-induced paw oedema, the modified method of Kasahara et al. was employed. One hour after the oral administration of either test sample or dosing vehicle, each mouse was injected with a freshly prepared (0.5 mg/25 μL) suspension of carrageenan (Sigma, St. Louis, MO, USA) in physiological saline (154 mM NaCl). The subplantar tissue of the right hind paw was the injection site for all mice. The contralateral paw (left hind paw) was injected with 25 μL saline solution as the internal control. […] The difference in footpad thickness between the right and left foot indicated the degree of inflammation for each mouse. The change in paw volume, either increase or decrease, was calculated and compared with the control group (dosing vehicle) and analyzed using statistical methods.
# stomach = assay: Gastric-ulcerogenic effect (ulcer score); format: in vivo, mice; conditions: 200 mg/kg p.o.; animals with lesions/animals
# [2] = tested on: acetic acid-induced abdominal constriction; assay: Acetic acid-induced writhing (Koster) test; format: in vivo, mice; conditions: for analgesic activity (in words): 100 mg/kg; for Writhing test (% inh.) / Writhing test (Mean ± SEM): 100 mg/kg oral; for Writhing test (Mean ± SEM): writhings counted 10 min from 5 min after acetic acid
# Method: Test samples, suspended in a mixture of distilled water and 0.5% sodium carboxymethyl cellulose (CMC), were given orally to the animals. The control group animals received the same experimental handling as those of the test groups, except that the drug treatment was replaced with appropriate volumes of the dosing vehicle. […] One hour after oral administration of test sample, each mouse was injected intraperitoneally with 3% (w/v) acetic acid solution (0.1 mL/10 g, bw). Starting 5 min after the acetic acid injection, the number of muscular contractions on mice were counted for a period of 10 min. A significant reduction in the number of writhings by any treatment as compared to the number of writhings in control animals was considered a positive analgesic response. The analgesic activity was expressed as a percentage change from writhing controls. ASA was used as a reference compound and administered at 200 mg/kg.
# [3] = biological target: T1, HCV NS5B RNA dependent RNA polymerase (Hepatitis C virus genotype 1b, UniProt P26663); assay: NS5B inhibition assay (primer dependent elongation, poly rA-U12); format: biochemical; conditions: read-out: Anti-NS5B Activity (% Inh., 100 µM)
# T1 construct: HCV NS5B RNA dependent RNA polymerase activity
# T1 sequence (P26663 2420-3010): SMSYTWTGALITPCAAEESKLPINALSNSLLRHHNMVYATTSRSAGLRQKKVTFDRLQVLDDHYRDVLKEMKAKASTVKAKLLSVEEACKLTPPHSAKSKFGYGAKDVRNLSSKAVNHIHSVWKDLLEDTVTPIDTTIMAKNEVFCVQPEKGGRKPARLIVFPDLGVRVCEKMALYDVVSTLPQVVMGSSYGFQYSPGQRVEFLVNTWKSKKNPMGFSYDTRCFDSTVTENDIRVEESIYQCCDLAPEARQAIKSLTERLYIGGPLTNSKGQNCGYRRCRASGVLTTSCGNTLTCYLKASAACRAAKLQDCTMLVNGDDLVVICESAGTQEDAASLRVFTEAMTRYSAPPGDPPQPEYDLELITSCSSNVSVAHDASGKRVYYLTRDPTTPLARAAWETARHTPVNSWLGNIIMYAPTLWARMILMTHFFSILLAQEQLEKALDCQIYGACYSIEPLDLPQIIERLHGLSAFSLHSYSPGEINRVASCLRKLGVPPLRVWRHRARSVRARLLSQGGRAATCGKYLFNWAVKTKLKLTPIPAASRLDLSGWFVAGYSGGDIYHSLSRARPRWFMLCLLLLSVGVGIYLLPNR
# Method: The compounds 1a–e and 2a–e were reconstituted in DMSO as 50 mM stocks, and serially diluted in DMSO to obtain working stocks. Wedelolactone, a known inhibitor of HCV NS5B activity, was employed as a reference compound. Preliminary screening was carried out at 100 μM to identify a wider range of compounds.
# All synthesized compounds were evaluated for their effect on HCV NS5B RNA dependent RNA polymerase activity in primer dependent elongation assays as previously described. Activity of NS5B in the absence of the inhibitor but containing an equivalent amount of DMSO (control reaction) was set at 100% and that in the presence of the inhibitor was quantified relative to this control.
# [4] = tested on: lipid peroxidation in stomach; assay: Lipid peroxidation in stomach (TBARS); format: in vivo, mice; conditions: 100 mg/kg, 8 h after analgesic test
SMILES,"Swelling in thickness ± SEM ([1]; 50 mg/kg per os, 90 min)","percent inhibitory activity ([1]; 50 mg/kg per os, 90 min) [%]","Swelling in thickness ± SEM ([1]; 50 mg/kg per os, 180 min)","percent inhibitory activity ([1]; 50 mg/kg per os, 180 min) [%]","Swelling in thickness ± SEM ([1]; 50 mg/kg per os, 270 min)","percent inhibitory activity ([1]; 50 mg/kg per os, 270 min) [%]","Swelling in thickness ± SEM ([1]; 50 mg/kg per os, 360 min)","percent inhibitory activity ([1]; 50 mg/kg per os, 360 min) [%]","Swelling in thickness ± SEM ([1]; 100 mg/kg per os, 90 min)","Swelling in thickness ± SEM ([1]; 100 mg/kg per os, 180 min)","Swelling in thickness ± SEM ([1]; 100 mg/kg per os, 270 min)","percent inhibitory activity ([1]; 100 mg/kg per os, 270 min) [%]","Swelling in thickness ± SEM ([1]; 100 mg/kg per os, 360 min)","percent inhibitory activity ([1]; 100 mg/kg per os, 360 min) [%]","Swelling in thickness ± SEM ([1]; 200 mg/kg per os, 90 min)","Swelling in thickness ± SEM ([1]; 200 mg/kg per os, 180 min)","Swelling in thickness ± SEM ([1]; 200 mg/kg per os, 360 min)","percent inhibitory activity ([1]; 200 mg/kg per os, 360 min) [%]",Ulcer score (stomach),Writhing test (% inh.) [2] [%],other results
"Cc1ccc(-c2cc(C(F)(F)F)nn2-c2ccc(S(=O)(=O)/N=C3\SCC(=O)N3Cc3ccccc3)cc2)cc1 [Compound 2c, N-(3-Benzyl-4-oxo-1,3-thiazolidin-2-yldene)-4-[5-(4-methylphenyl)-3-(trifluoromethyl)-1H-pyrazol-1-yl]benzenesulfonamide]",65.0 ± 6.1 × 10^−2 mm,9.7,74.0 ± 8.8 × 10^−2 mm,19.5,95.0 ± 10.0 × 10^−2 mm,21.4,110.0 ± 7.1 × 10^−2 mm,14.7,83.4 ± 8.7 × 10^−2 mm,90.6 ± 11.7 × 10^−2 mm,91.7 ± 16.7 × 10^−2 mm,24.2,118.2 ± 7.1 × 10^−2 mm,8.3,69.5 ± 8.3 × 10^−2 mm,75.6 ± 8.3 × 10^−2 mm,120.1 ± 5.3 × 10^−2 mm,6.9,0/5,32.2,"percent inhibitory activity ([1]; 200 mg/kg per os, 90 min): 3.4%; percent inhibitory activity ([1]; 200 mg/kg per os, 180 min): 17.8%; Swelling in thickness ± SEM ([1]; 200 mg/kg per os, 270 min): 133.2 ± 14.3 × 10^−2 mm; analgesic activity (in words) [2]: not statistically significant; Writhing test (Mean ± SEM) [2]: 11.8 ± 1.4; melting point: 250 °C; inhibition at 100 µM [3]: 19.4%; Lipid peroxidation [4]: 330.4 ± 9.7 nmol TBARS/g wet weight"
Cc1ccc(-c2cc(C(F)(F)F)nn2-c2ccc(S(=O)(=O)NC(=S)Nc3ccc(C(F)(F)F)cc3)cc2)cc1 [Compound 1e],47.0 ± 3.3 × 10^−2 mm,34.7,57.0 ± 6.2 × 10^−2 mm,38.0,92.0 ± 1.2 × 10^−2 mm,23.9,106.0 ± 6.7 × 10^−2 mm,17.8,88.4 ± 2.6 × 10^−2 mm,83.9 ± 3.4 × 10^−2 mm,88.7 ± 11.4 × 10^−2 mm,26.7,83.4 ± 9.6 × 10^−2 mm,35.4,76.9 ± 5.7 × 10^−2 mm,83.0 ± 6.8 × 10^−2 mm,103.7 ± 5.2 × 10^−2 mm,19.6,0/5,−37.9,"percent inhibitory activity ([1]; 100 mg/kg per os, 180 min): 8.8%; Swelling in thickness ± SEM ([1]; 200 mg/kg per os, 270 min): 110.5 ± 7.5 × 10^−2 mm; anti-inflammatory activity (in words) [1]: moderate-to-good; Writhing test (Mean ± SEM) [2]: 24.0 ± 3.0; melting point: 228 to 231 °C; inhibition at 100 µM [3]: 14.6%; Lipid peroxidation [4]: 406.9 ± 27.0 nmol TBARS/g wet weight"
"Cc1ccc(-c2cc(C(F)(F)F)nn2-c2ccc(S(=O)(=O)/N=C3\SCC(=O)N3c3ccc([N+](=O)[O-])cc3)cc2)cc1 [Compound 2d, N-[3-(4-Nitrophenyl)-4-oxo-1,3-thiazolidin-2-yldene)-4-[5-(4-methylphenyl)-3-(trifluoromethyl)-1H-pyrazol-1-yl]benzenesulfonamide]",47.0 ± 3.3 × 10^−2 mm,34.7,47.0 ± 3.7 × 10^−2 mm,48.9,89.0 ± 6.5 × 10^−2 mm,26.4,110.0 ± 6.7 × 10^−2 mm,14.7,73.2 ± 11.1 × 10^−2 mm,100.6 ± 5.8 × 10^−2 mm,98.2 ± 16.7 × 10^−2 mm,21.6,120.9 ± 9.3 × 10^−2 mm,6.3,80.6 ± 9.4 × 10^−2 mm,86.0 ± 9.4 × 10^−2 mm,108.6 ± 5.6 × 10^−2 mm,15.8,0/5,31,"percent inhibitory activity ([1]; 200 mg/kg per os, 180 min): 6.5%; anti-inflammatory activity (in words) [1]: moderate-to-good; analgesic activity (in words) [2]: not statistically significant; Writhing test (Mean ± SEM) [2]: 12.0 ± 2.6; melting point: 270 to 272 °C; inhibition at 100 µM [3]: 31.3%; Lipid peroxidation [4]: 350.2 ± 9.9 nmol TBARS/g wet weight"
